Measurements reported in article PMC10348910, “Epigenetic reprogramming of cell cycle genes by ACK1 promotes breast cancer resistance to CDK4/6 inhibitor” (Oncogene, 2023).

Legend:
[1] = system: cytochrome P450 (CYP) isoenzymes; assay type: in vitro ADME; conditions: human liver microsomes; CYP1A1/2, CYP2C9, CYP2C19, CYP2D6 and CYP3A4
breast cancer cell lines = assay: proliferation assay, trypan blue exclusion; assay type: cell-based; conditions: 96 h
Protocol: (§1) Fig. 2 ACK1 regulates breast cancer transcriptome, affecting genes implicated in cell cycle progression. A Chemical structure of (R)-9b. B Breast cancer cell lines were treated with either vehicle or (R)-9b overnight and cell lysates were subjected to immunoprecipitation using ACK1 antibody, followed by immunoblotting with pY284-ACK1 antibody. Lysates were also subjected to immunoblotting with total ACK1 and Actin antibodies, shown in the lower panels. […] C Breast cancer cell lines were treated with varying concentrations of (R)-9b for 96 h and the cell proliferation was measured using Trypan Blue exclusion method. […]
(§2) For proliferation assay, 5 × 10^4 cells were plated in 6-well plate and treated with either vehicle (DMSO) or varying concentrations of (R)-9b or palbociclib in complete media for 96 h and number of viable cells were counted by trypan blue exclusion assay. […] The cells were acquired using the BD FACSCalibur machine (BD Biosciences) and data was analyzed using FlowJo software. […] The data were analyzed using FlowJo software.
(§3) No data was excluded from the analysis. […] Data were expressed as the mean ± SEM. Data between two groups were analyzed with unpaired Student’s t tests using Graphpad Prism (Graphpad Software Inc, California, USA). […]

[2] = system: normal breast cell line, MCF10A; assay: proliferation assay, trypan blue exclusion; assay type: cell-based; conditions: Homo sapiens, MCF-10A, 96 h
Protocol: as §1, §2, §3

Cal-148 xenografts = assay: Cal-148 xenograft in mammary fat pad; assay type: in vivo, female SCID mice; conditions: 24 mg/Kg subcutaneously, 4 weeks
Protocol: In order to assess the in vivo implications of ACK1 inhibition in TNBCs, Cal-148 xenografts were established in mammary fat pad of female SCID mice. Once the tumors were palpable, the mice were injected subcutaneously with 24 mg/Kg of (R)-9b for 4 weeks and the tumor volumes were measured. On reaching the endpoint, the mice were sacrificed and the tumors were harvested, weighed and photographed. […] RNA was prepared from the tumors, followed by qRT-PCR.
Fig. 6 (R)-9b inhibits breast cancer xenograft tumor growth in vivo. A 2 × 10^6 Cal-148 cells were injected in the 4th inguinal mammary fat pad of female SCID mice. Once the tumors were palpable, the mice were treated subcutaneously with either vehicle (Captisol; n = 8) or (R)-9b at 24 mg/Kg (n = 8) five times a week, for 4 weeks. The tumor volumes were measured twice a week. B, C The tumors were harvested and photographed, and the weights were recorded. D RNA was prepared from the tumors, followed by qRT-PCR to determine the levels of CCNB1, CCNB2 and CDC20 mRNA (n = 3 each). […] The tumors were harvested, their weights were recorded and photographed. […]
All animal experiments were performed using the standards for humane care in accordance with the NIH Guide for the Care and Use of Laboratory Animals. […] Tumor volumes were measured twice a week using calipers. […]

[3] = system: prostate cancer cell lines; parameters: method as in PMID 28609657; conditions: various prostate cancer cell lines; cited from earlier work
ACK1 = ACK1 (Homo sapiens, UniProt Q07912); assay: biochemical; conditions: 1 uM ATP; read-out: Compound IC50 (M) ACK1
Chain of ACK1 (Q07912 whole entry): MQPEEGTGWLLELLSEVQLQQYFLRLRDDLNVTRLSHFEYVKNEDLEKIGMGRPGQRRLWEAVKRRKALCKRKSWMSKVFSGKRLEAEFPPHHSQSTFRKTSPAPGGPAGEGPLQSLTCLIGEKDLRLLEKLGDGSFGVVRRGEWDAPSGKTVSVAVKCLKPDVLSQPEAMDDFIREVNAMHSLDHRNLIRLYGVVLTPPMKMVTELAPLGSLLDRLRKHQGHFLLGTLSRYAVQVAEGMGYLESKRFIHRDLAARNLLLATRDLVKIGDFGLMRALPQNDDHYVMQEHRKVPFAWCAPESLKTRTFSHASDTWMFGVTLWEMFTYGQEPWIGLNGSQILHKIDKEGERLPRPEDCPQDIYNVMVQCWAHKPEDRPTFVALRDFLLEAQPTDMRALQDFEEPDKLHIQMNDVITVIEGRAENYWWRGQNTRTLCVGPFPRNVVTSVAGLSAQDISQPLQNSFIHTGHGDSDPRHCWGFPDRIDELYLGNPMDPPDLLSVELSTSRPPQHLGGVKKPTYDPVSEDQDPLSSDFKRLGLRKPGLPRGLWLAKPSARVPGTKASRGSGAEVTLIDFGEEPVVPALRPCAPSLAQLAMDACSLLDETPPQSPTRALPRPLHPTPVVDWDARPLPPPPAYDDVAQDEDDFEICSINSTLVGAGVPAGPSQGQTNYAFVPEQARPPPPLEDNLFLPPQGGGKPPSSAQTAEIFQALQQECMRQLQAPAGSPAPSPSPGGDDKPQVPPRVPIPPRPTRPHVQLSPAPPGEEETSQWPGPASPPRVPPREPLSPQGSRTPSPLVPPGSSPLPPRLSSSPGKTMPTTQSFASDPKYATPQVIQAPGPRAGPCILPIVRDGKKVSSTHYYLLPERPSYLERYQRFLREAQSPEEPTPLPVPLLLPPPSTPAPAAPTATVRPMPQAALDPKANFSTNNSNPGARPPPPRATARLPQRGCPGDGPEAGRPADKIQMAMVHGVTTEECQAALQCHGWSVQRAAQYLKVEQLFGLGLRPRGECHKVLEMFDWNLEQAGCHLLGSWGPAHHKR

potential to inhibit cytochrome P450 (CYP) isoenzymes [1]: low potential to inhibit | IC50 (breast cancer cell lines): 250 to 1220 nM | IC50 (ACK1): 1.25e-08 M
SMILES: CN1CCN(c2ccc(Nc3ncc(Cl)c(NC[C@H]4CCCO4)n3)cc2)CC1 [(R)-9b]
IC50 [2]: 1490 nM | CCNB1, CCNB2 and CDC20 mRNA levels in tumors (Cal-148 xenografts): significant decrease | xenograft tumor growth (Cal-148 xenografts; five times a week): significant suppression | IC50 [3]: 400 nM
